{"source": "patent US20240148821A1", "about": "“PHARMACEUTICAL USE OF CYCLIC PEPTIDE COMPOUND” (CHUGAI SEIYAKU KABUSHIKI KAISHA, priority 2021, published 2024)", "note": "Numbered stars: 1 amine (or outer) side, 2 acyl side, 3 side chain; on linkers, the order of the positions; unused ones are H or OH. Bridge positions count the residues as written; N and C are the ends. Square brackets hold non-standard residues; d marks the D form. Peptide text beside a SMILES is read from it. * marks the point of attachment. hPhe(3-Cl-4-CF3) = N[C@@H](CCc1ccc(C(F)(F)F)c(Cl)c1)C(=O)O; NMePhe(4-Cl) = CN[C@@H](Cc1ccc(Cl)cc1)C(=O)O; X41 = CN([C@@H](CC=C1CCOCC1)C(=O)[*:2])[*:1]; X99 = O=C([C@H](CCc1ccc(F)cc1F)N[*:1])[*:2]; NMePhe(2-Cl) = CN[C@@H](Cc1ccccc1Cl)C(=O)O; hPhe(4-Cl) = N[C@@H](CCc1ccc(Cl)cc1)C(=O)O; NMedβ3hAla = C[C@H](CC(=O)[*:2])N(C)[*:1]; Gly(Nα-CH2(4-Pyr)) = O=C(O)CNCc1ccncc1; NMeGly(cPent) = CN[C@H](C(=O)O)C1CCCC1; Phe(3-I) = N[C@@H](Cc1cccc(I)c1)C(=O)O; NMeCha = CN[C@@H](CC1CCCCC1)C(=O)O; Hyp = O=C(O)[C@@H]1C[C@@H](O)CN1; NMeChg = CN[C@H](C(=O)O)C1CCCCC1; NMeF = CN[C@@H](Cc1ccccc1)C(=O)O; N(CH2CH2)2CF2 = FC1(F)CCN(*)CC1; NMeE = CN[C@@H](CCC(=O)O)C(=O)O; NMeD = CN[C@@H](CC(=O)O)C(=O)O; NMeL = CN[C@@H](CC(C)C)C(=O)O; NMeV = CN[C@H](C(=O)O)C(C)C; d(β3hA) = C[C@@H](N)CC(=O)O; Morpholide = C1CN(*)CCO1; NMeA = CN[C@@H](C)C(=O)O; Piperidide = C1CCN(*)CC1; Pyrrolidide = C1CCN(*)C1; Ac5c = NC1(C(=O)O)CCCC1; Aze = O=C(O)[C@@H]1CCN1; Sar = CNCC(=O)O", "data": [{"molecular_target": "protein-protein interaction between Kras and SOS1 (biotin-tagged human Kras loaded with GDP, His-tagged human SOS1) (Homo sapiens (Human), UniProt P01116, G12D)", "assay": "Protein-protein interaction inhibition between Kras and SOS1 (KrasG12D-SOS PPI) using AlphaScreen;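 note: kras produced in E. coli, Ni-coupled donor beads and streptavidin acceptor beads, excitation 680 nm with emission detected at 520–620 nm via singlet oxygen transfer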", "format": "biochemical", "conditions": "AlphaScreen; biotin-tagged human Kras loaded with GDP, His-tagged human SOS1; read-out: KRAS G12D-SOS PPI IC50", "units": {"IC50": "nM"}, "values": [{"molecule": "CC[C@H](C)[C@@H]1NC(=O)[C@H](CC(C)C)N(C)C(=O)C[C@@H](C(=O)N2CCOCC2)N(C)C(=O)[C@H](C2CCCC2)N(C)C(=O)C2(CCCC2)NC(=O)[C@H](CCC(=O)N2CCOCC2)N(C)C(=O)[C@H](CCc2ccc(C(F)(F)F)c(Cl)c2)NC(=O)CN(C)C(=O)[C@H](CC2CCCCC2)N(C)C(=O)[C@@H]2CCN2C(=O)[C@H](C)N(C)C1=O", "note": "[Compound 2107] ([NMeL]I[NMeA][Aze][NMeCha][Sar][hPhe(3-Cl-4-CF3)][NMeE](Morpholide)[Ac5c][NMeGly(cPent)][NMeD]-Morpholide; lactam N-11)", "IC50": 4.8}, {"molecule": "CCO[C@@H]1C[C@H]2C(=O)N(C)[C@@H](Cc3ccccc3)C(=O)N(C)[C@@H](CC(C)C)C(=O)N[C@H](C(=O)N3CCCC3)CC(=O)N(C)[C@@H](C)C(=O)N[C@@H]([C@@H](C)CC)C(=O)N(C)CC(=O)N(C)CC(=O)N(C)[C@@H](Cc3ccc(Cl)cc3)C(=O)N(C)CC(=O)N[C@@H](Cc3cccc(I)c3)C(=O)N2C1", "note": "[Compound 634] ([NMeA]I[Sar][Sar][NMePhe(4-Cl)][Sar][Phe(3-I)][Hyp](Et)[NMeF][NMeL]D-Pyrrolidide; lactam N-11)", "IC50": 260}, {"molecule": "CC[C@H](C)[C@@H]1NC(=O)[C@H](CC(C)C)N(C)C(=O)C[C@@H](C)N(C)C(=O)[C@H](C(C)C)N(C)C(=O)C2(CCCC2)NC(=O)[C@H](CC(=O)N2CCC(F)(F)CC2)N(C)C(=O)[C@H](CCc2ccc(C(F)(F)F)c(Cl)c2)NC(=O)CN(C)C(=O)[C@H](CC2CCCCC2)N(C)C(=O)CN(C)C(=O)CN(C)C1=O", "note": "[Compound 350] (cyclo([Ac5c][NMeV][NMedβ3hAla][NMeL]I[Sar][Sar][NMeCha][Sar][hPhe(3-Cl-4-CF3)][NMeD](N(CH2CH2)2CF2)))", "IC50": 64}, {"molecule": "CO[C@H](C)[C@@H]1NC(=O)[C@H](CC(C)C)N(C)C(=O)C[C@@H](C(=O)N2CCCCC2)N(C)C(=O)[C@H](C(C)C)N(C)C(=O)C2(CCCC2)NC(=O)[C@@H]2CCCN2C(=O)[C@H](CCc2ccc(C(F)(F)F)c(Cl)c2)NC(=O)CN(C)C(=O)[C@H](CC2CCCCC2)N(C)C(=O)[C@@H]2CCN2C(=O)[C@H](C)N(C)C1=O", "note": "[Compound 497] ([NMeL]T(Me)[NMeA][Aze][NMeCha][Sar][hPhe(3-Cl-4-CF3)]P[Ac5c][NMeV][NMeD]-Piperidide; lactam N-11)", "IC50": 4.3}, {"molecule": "CC[C@H](C)[C@@H]1NC(=O)[C@H](C)N(C)C(=O)C[C@@H](C(=O)N2CCCC2)N(C)C(=O)[C@H](C(C)C)N(C)C(=O)C2(CCCC2)NC(=O)[C@H](Cc2ccccc2Cl)N(C)C(=O)[C@H](CCc2ccc(Cl)cc2)NC(=O)CN(C)C(=O)[C@H](CC2CCCCC2)N(C)C(=O)CN(C)C(=O)CN(C)C1=O", "note": "[Compound 607] ([NMeA]I[Sar][Sar][NMeCha][Sar][hPhe(4-Cl)][NMePhe(2-Cl)][Ac5c][NMeV][NMeD]-Pyrrolidide; lactam N-11)", "IC50": 220}, {"molecule": "CC[C@H](C)[C@@H]1NC(=O)[C@H](CC(C)C)N(C)C(=O)C[C@@H](C(=O)N2CCCCC2)N(C)C(=O)[C@H](C2CCCCC2)N(C)C(=O)C2(CCCC2)NC(=O)CN(Cc2ccncc2)C(=O)[C@H](CCc2ccc(C(F)(F)F)c(Cl)c2)NC(=O)CN(C)C(=O)[C@H](CC2CCCCC2)N(C)C(=O)CN(C)C(=O)CN(C)C1=O", "note": "[Compound 2033] ([NMeL]I[Sar][Sar][NMeCha][Sar][hPhe(3-Cl-4-CF3)][Gly(Nα-CH2(4-Pyr))][Ac5c][NMeChg][NMeD]-Piperidide; lactam N-11 (inferred); C-terminus assumed)", "IC50": 0.65}, {"molecule": "CC[C@H](C)[C@@H]1NC(=O)[C@H](CC(C)C)N(C)C(=O)C[C@@H](C(=O)N2CCCCC2)N(C)C(=O)[C@H](C2CCCCC2)N(C)C(=O)C2(CCCC2)NC(=O)[C@H](CC=C2CCOCC2)N(C)C(=O)[C@H](CCc2ccc(C(F)(F)F)c(Cl)c2)NC(=O)CN(C)C(=O)[C@H](CC2CCCCC2)N(C)C(=O)CN(C)C(=O)CN(C)C1=O", "note": "[Compound 2053, (8S,11S,17S,26S,29S,33S,36S)-11-[2-[3-chloro-4-(trifluoromethyl)phenyl]ethyl]-36-cyclohexyl-17-(cyclohexylmethyl)-29-isobutyl-9,15,18,21,24,30,34,37-octamethyl-26-[(1S)-1-methylpropyl]-33-(piperidine-1-carbonyl)-8-(2-tetrahydropyran-4-ylideneethyl)-6,9,12,15,18,21,24,27,30,34,37-undecazaspiro[4.33]octatriacontane-7,10,13,16,19,22,25,28,31,35,38-undecone] ([NMeL]I[Sar][Sar][NMeCha][Sar][hPhe(3-Cl-4-CF3)][X41][Ac5c][NMeChg][NMeD]-Piperidide; lactam N-11)", "IC50": 10}, {"molecule": "CC[C@H](C)[C@@H]1NC(=O)[C@H](C)N(C)C(=O)C[C@@H](C)NC(=O)[C@H](CC(C)C)N(C)C(=O)[C@H](Cc2ccccc2)N(C)C(=O)[C@H](CC(C)C)NC(=O)[C@H](CCc2ccc(F)cc2F)NC(=O)CN(C)C(=O)[C@H](Cc2ccc(Cl)cc2)N(C)C(=O)CN(C)C(=O)CN(C)C1=O", "note": "[Compound 2089] (cyclo(I[Sar][Sar][NMePhe(4-Cl)][Sar][X99]L[NMeF][NMeL][d(β3hA)][NMeA]))", "IC50": 300}]}]}
